According to patent US11267825B2 (AICURIS GMBH & CO. KG, priority 2017, dated 2022):
pEC50, pIC50: −log10 of the molar value.

Legend:
HBV = assay: Determination of HBV DNA from the supernatants of HepAD38 cells (anti-HBV activity); format: cell-based, hepatitis B virus; details: Hepatitis B virus, 144 h; HBV DNA in HepAD38 supernatant at day 6; read-out: Cell Activity (EC50)
How it was run: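 EC50 values were obtained by non-linear regression of HBV DNA copy numbers measured by qPCR against pCH-9/3091 plasmid standards. The DNA came from filtered supernatants collected on day 6. Before that, tetracycline-withdrawn HepAD38 cells had been exposed to serial half-log compound dilutions, with tetracycline-treated cells as the non-producing control.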

HBV core protein = HBV core protein (UniProt P03146); format: biochemical; details: read-out: Assembly Activity (IC50); BODIPY-FL labelled core protein, assembly started with NaCl, read after 6 min
Sequence of HBV core protein (P03146 whole entry, looked up, the tested form may be a part): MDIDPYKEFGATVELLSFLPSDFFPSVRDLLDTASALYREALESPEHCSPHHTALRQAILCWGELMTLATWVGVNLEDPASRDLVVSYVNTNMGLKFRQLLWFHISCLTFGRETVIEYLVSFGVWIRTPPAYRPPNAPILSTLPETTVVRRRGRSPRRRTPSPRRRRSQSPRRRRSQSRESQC
How it was run: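 Compounds tested at 8 concentrations in 0.5-log steps from 100, 31.6 or 10 μM against 1.0–2.0 μM BODIPY-FL-labelled Cys150 core dimers (residues 1–149), 50 mM HEPES pH 7.5. NaCl ([…] final) triggered assembly; quenching read at 6 min, 477/525 nm, with 2.5 M and 0 M NaCl as controls; EC50 by nonlinear fit.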

Row | SMILES | pEC50 (HBV) | pIC50 (HBV core protein)
1 | O=C(c1cc2ccccc2[nH]1)N1CCc2nc(NCC3CCNC3)sc2C1 (stereo not drawn) [Example 389, 5-(1H-indole-2-carbonyl)-N—[(pyrrolidin-3-yl)methyl]-4H,5H,6H,7H-[1,3]thiazolo[5,4-c]pyridin-2-amine] | 5.00 to 6.00 | > 5.30
2 | O=C(Nc1nc2c(s1)CN(C(=O)c1cc3ccccc3[nH]1)CC2)NS(=O)(=O)C1CC1 [Example 390, 3-(cyclopropanesulfonyl)-1-[5-(1H-indole-2-carbonyl)-4H,5H,6H,7H-[1,3]thiazolo[5,4-c]pyridin-2-yl]urea] | > 4.00 | > 5.30
3 | CC(=O)N1CCC(CNc2nc3c(s2)CN(C(=O)c2cc4ccccc4[nH]2)CC3)C1 (stereo not drawn) [Example 391, 1-[3-({[5-(1H-indole-2-carbonyl)-4H,5H,6H,7H-[1,3]thiazolo[5,4-c]pyridin-2-yl]amino}methyl)pyrrolidin-1-yl]ethan-1-one] | > 6.00 | > 5.30
4 | CC(C)(C)OC(=O)N1CCC(CNc2nc3c(s2)CN(C(=O)c2cc4ccccc4[nH]2)CC3)C1 (stereo not drawn) [Example 392, tert-butyl 3-({[5-(1H-indole-2-carbonyl)-4H,5H,6H,7H-[1,3]thiazolo[5,4-c]pyridin-2-yl]amino}methyl)pyrrolidine-1-carboxylate] | > 6.00 | > 5.30
5 | CS(=O)(=O)NC(=O)Nc1nc2c(s1)CN(C(=O)c1cc3ccccc3[nH]1)CC2 [Example 393, 1-[5-(1H-indole-2-carbonyl)-4H,5H,6H,7H-[1,3]thiazolo[5,4-c]pyridin-2-yl]-3-methanesulfonylurea] | 5.00 to 6.00 | 5.00 to 5.30
6 | CCc1cc(F)cc2[nH]c(C(=O)N3CCc4nc(N[C@H]5CC[C@@H](O)CC5)sc4C3)cc12 [Example 394, (1s,4s)-4-{[5-(4-ethyl-6-fluoro-1H-indole-2-carbonyl)-4H,5H,6H,7H-[1,3]thiazolo[5,4-c]pyridin-2-yl]amino}cyclohexan-1-ol] | > 6.00 | > 5.30
7 | O=C(c1cc2ccccc2[nH]1)N1CCc2nc(N[C@H]3CC[C@@H](O)C3)sc2C1 [Example 396, (1R,3S)-3-{[5-(1H-indole-2-carbonyl)-4H,5H,6H,7H-[1,3]thiazolo[5,4-c]pyridin-2-yl]amino}cyclopentan-1-ol] | > 6.00 | > 5.30
8 | CC(F)(F)c1cccc2[nH]c(C(=O)N3CCc4nc(NC(=O)C5CCOCC5)sc4C3)cc12 [Example 399, N-{5-[4-(1,1-difluoroethyl)-1H-indole-2-carbonyl]-4H,5H,6H,7H-[1,3]thiazolo[5,4-c]pyridin-2-yl}oxane-4-carboxamide] | 5.00 to 6.00 | > 5.30
9 | O=C(Nc1nc2c(s1)CN(C(=O)c1cc3c(C(F)F)cccc3[nH]1)CC2)C1CCOCC1 [Example 400, N-{5-[4-(difluoromethyl)-1H-indole-2-carbonyl]-4H,5H,6H,7H-[1,3]thiazolo[5,4-c]pyridin-2-yl}oxane-4-carboxamide] | > 6.00 | > 5.30
10 | CC(F)(F)c1cc(F)cc2[nH]c(C(=O)N3CCc4nc(NC(=O)C5CCOCC5)sc4C3)cc12 [Example 401, N-{5-[4-(1,1-difluoroethyl)-6-fluoro-1H-indole-2-carbonyl]-4H,5H,6H,7H-[1,3]thiazolo[5,4-c]pyridin-2-yl}oxane-4-carboxamide] | > 6.00 | > 5.30
11 | O=C(Nc1nc2c(s1)CN(C(=O)c1cc3c(C(F)F)cc(F)cc3[nH]1)CC2)C1CCOCC1 [Example 402, N-{5-[4-(difluoromethyl)-6-fluoro-1H-indole-2-carbonyl]-4H,5H,6H,7H-[1,3]thiazolo[5,4-c]pyridin-2-yl}oxane-4-carboxamide] | > 6.00 | > 5.30
12 | CCc1cc(F)cc2[nH]c(C(=O)N3CCc4nc(NC(=O)C5CCOCC5)sc4C3)cc12 [Example 403, N-[5-(4-ethyl-6-fluoro-1H-indole-2-carbonyl)-4H,5H,6H,7H-[1,3]thiazolo[5,4-c]pyridin-2-yl]oxane-4-carboxamide] | > 6.00 | > 5.30
13 | O=C1CCC(CNc2nc3c(s2)CN(C(=O)c2cc4ccccc4[nH]2)CC3)N1 (stereo not drawn) [Example 404, 5-({[5-(1H-indole-2-carbonyl)-4H,5H,6H,7H-[1,3]thiazolo[5,4-c]pyridin-2-yl]amino}methyl)pyrrolidin-2-one] | > 6.00 | > 5.30
14 | O=C(c1cc2ccccc2[nH]1)N1CCc2nc(NCC3(O)CC3)sc2C1 [Example 405, 1-({[5-(1H-indole-2-carbonyl)-4H,5H,6H,7H-[1,3]thiazolo[5,4-c]pyridin-2-yl]amino}methyl)cyclopropan-1-ol] | > 6.00 | > 5.30
15 | Nc1nc2c(s1)CN(C(=O)c1cc3ccc(Cl)c(F)c3[nH]1)CC2 [Example 407, 5-(6-chloro-7-fluoro-1H-indole-2-carbonyl)-4H,5H,6H,7H-[1,3]thiazolo[5,4-c]pyridin-2-amine] | > 6.00 | > 5.30
16 | O=C(c1cc2c(C(F)F)cccc2[nH]1)N1CCc2nc(NCC3(O)CCC3)sc2C1 [Example 408, 1-[({5-[4-(difluoromethyl)-1H-indole-2-carbonyl]-4H,5H,6H,7H-[1,3]thiazolo[5,4-c]pyridin-2-yl}amino)methyl]cyclobutan-1-ol] | > 6.00 | > 5.30
17 | CN1CCC(C(=O)Nc2nc3c(s2)CN(C(=O)c2cc4ccccc4[nH]2)CC3)CC1 [Example 409, N-[5-(1H-indole-2-carbonyl)-4H,5H,6H,7H-[1,3]thiazolo[5,4-c]pyridin-2-yl]-1-methylpiperidine-4-carboxamide] | > 6.00 | > 5.30
18 | CC(=O)N1CCC(C(=O)Nc2nc3c(s2)CN(C(=O)c2cc4ccccc4[nH]2)CC3)CC1 [Example 410, 1-acetyl-N-[5-(1H-indole-2-carbonyl)-4H,5H,6H,7H-[1,3]thiazolo[5,4-c]pyridin-2-yl]piperidine-4-carboxamide] | > 6.00 | > 5.30
19 | O=C(Nc1nc2c(s1)CN(C(=O)c1cc3ccccc3[nH]1)CC2)C1CCC(O)CC1 (stereo not drawn) [Example 411, 4-hydroxy-N-[5-(1H-indole-2-carbonyl)-4H,5H,6H,7H-[1,3]thiazolo[5,4-c]pyridin-2-yl]cyclohexane-1-carboxamide] | > 6.00 | > 5.30
20 | O=C1CC(C(=O)Nc2nc3c(s2)CN(C(=O)c2cc4ccccc4[nH]2)CC3)CCN1 (stereo not drawn) [Example 412, N-[5-(1H-indole-2-carbonyl)-4H,5H,6H,7H-[1,3]thiazolo[5,4-c]pyridin-2-yl]-2-oxopiperidine-4-carboxamide] | > 6.00 | > 5.30
21 | CC(C)OC1(CNc2nc3c(s2)CN(C(=O)c2cc4ccccc4[nH]2)CC3)CCC1 [Example 413, 5-(1H-indole-2-carbonyl)-N-{[1-(propan-2-yloxy)cyclobutyl]methyl}-4H,5H,6H,7H-[1,3]thiazolo[5,4-c]pyridin-2-amine] | > 6.00 | > 5.30
22 | COC1(CNc2nc3c(s2)CN(C(=O)c2cc4ccccc4[nH]2)CC3)CCC1 [Example 414, 5-(1H-indole-2-carbonyl)-N-[(1-methoxycyclobutyl)methyl]-4H,5H,6H,7H-[1,3]thiazolo[5,4-c]pyridin-2-amine] | > 6.00 | > 5.30
23 | O=C(c1cc2ccccc2[nH]1)N1CCc2nc(NC3CC(F)(F)C3)sc2C1 [Example 416, N-(3,3-difluorocyclobutyl)-5-(1H-indole-2-carbonyl)-4H,5H,6H,7H-[1,3]thiazolo[5,4-c]pyridin-2-amine] | > 6.00 | 5.00 to 5.30
24 | CCNC(=O)C1(CNc2nc3c(s2)CN(C(=O)c2cc4ccccc4[nH]2)CC3)CCC1 [Example 417, N-ethyl-1-({[5-(1H-indole-2-carbonyl)-4H,5H,6H,7H-[1,3]thiazolo[5,4-c]pyridin-2-yl]amino}methyl)cyclobutane-1-carboxamide] | > 6.00 | > 5.30
25 | O=C(c1cc2ccccc2[nH]1)N1CCc2nc(NCC3CCC3)sc2C1 [Example 418, N-(cyclobutylmethyl)-5-(1H-indole-2-carbonyl)-4H,5H,6H,7H-[1,3]thiazolo[5,4-c]pyridin-2-amine] | > 6.00 | 5.00 to 5.30
26 | O=C(c1cc2ccccc2[nH]1)N1CCc2nc(NC3(c4ccccc4)CC3)sc2C1 [Example 419, 5-(1H-indole-2-carbonyl)-N-(1-phenylcyclopropyl)-4H,5H,6H,7H-[1,3]thiazolo[5,4-c]pyridin-2-amine] | > 6.00 | 5.00 to 5.30
27 | CNC(=O)C1(CNc2nc3c(s2)CN(C(=O)c2cc4ccccc4[nH]2)CC3)CCC1 [Example 428, 1-({[5-(1H-indole-2-carbonyl)-4H,5H,6H,7H-[1,3]thiazolo[5,4-c]pyridin-2-yl]amino}methyl)-N-methylcyclobutane-1-carboxamide] | > 6.00 | > 5.30
28 | O=C(c1cc2ccccc2[nH]1)N1CCc2nc(NC3CCC3)sc2C1 [Example 429, N-cyclobutyl-5-(1H-indole-2-carbonyl)-4H,5H,6H,7H-[1,3]thiazolo[5,4-c]pyridin-2-amine] | > 6.00 | > 5.30
29 | O=C(c1cc2ccccc2[nH]1)N1CCc2nc(NC3(c4c[nH]nn4)CC(F)(F)C3)sc2C1 [Example 430, N-[3,3-difluoro-1-(1H-1,2,3-triazol-4-yl)cyclobutyl]-5-(1H-indole-2-carbonyl)-4H,5H,6H,7H-[1,3]thiazolo[5,4-c]pyridin-2-amine] | > 6.00 | > 5.30
30 | O=C(c1cc2ccccc2[nH]1)N1CCc2nc(NCC3(c4ccccn4)CCC3)sc2C1 [Example 432, 5-(1H-indole-2-carbonyl)-N-{[1-(pyridin-2-yl)cyclobutyl]methyl}-4H,5H,6H,7H-[1,3]thiazolo[5,4-c]pyridin-2-amine] | > 6.00 | > 5.30
